How the values were obtained:
[1] = target: SARS-CoV-2 Papain-like (PLpro) protease (Severe acute respiratory syndrome coronavirus 2, UniProt P0DTD1); test: SARS-CoV-2 Papain-like (PLpro) protease biochemical enzyme inhibition assay (ubiquitin-fluorophore substrate, Ub-R110); details: Ub-R110 substrate; run in duplicate; read-out: PLpro IC50
[2] = system: SARS-CoV-2 replicon; test: microbe, parasite or virus in culture; type: cell-based; details: Severe acute respiratory syndrome coronavirus 2, Huh-7

SMILES | IC50 [1] [nM] | EC50 [2] [nM]
CS(=O)(=O)/C=C/CNC(=O)C(=O)NCc1ccccc1C(=O)NC1(c2cccc3ccccc23)CC1 [Example 155] | < 100 | < 1000
Cc1nn(C(F)F)c(C)c1-c1cc(F)cc(C2(NC(=O)c3ccccc3CNC(=O)C(=O)NCC#Cc3nccs3)CC2)c1 [Example 140] | < 100 | < 1000
C#CCNC(=O)C(=O)NCc1ccccc1C(=O)NC1(c2cc(Cl)cc(-c3cc4ccccc4s3)c2)CC1 [Example 445] | < 100 | 1000 to 10000
COc1cc(C2(NC(=O)c3ccccc3CNC(=O)C(=O)NCC#N)CC2)c2cccnc2c1 [Example 411] | < 100 | 1000 to 10000
O=C(NC/C=C1\CCOC1=O)C(=O)NCc1ccccc1C(=O)NC1(c2cccc3ccccc23)CC1 [Example 153] | < 100 | < 1000
O=C(NCC#Cc1ncc(F)cn1)C(=O)NCc1ccccc1C(=O)NC1(c2ccc3ccccc3c2)CC1 [Example 176] | < 100 | < 1000
N#Cc1nc(C#CCNC(=O)C(=O)NCc2ccccc2C(=O)NC2(c3ccc4ccccc4c3)CC2)ccc1Cl [Example 194] | < 100 | < 1000
N#CCNC(=O)C(=O)NCc1ccccc1C(=O)NC1(c2cc(-c3cnn(C4CC4)c3)nc3c2ccn3C2CC2)CC1 [Example 413] | < 100 | < 1000
O=C(NCC#Cc1ncc(F)s1)C(=O)NCc1ccccc1C(=O)NC1(c2ccc3ccccc3c2)CC1 [Example 179] | < 100 | < 1000
O=C(NCC#Cc1ncc(F)s1)C(=O)NCc1ccccc1C(=O)NC1(c2cc(F)cc(-c3cnn(C4CC4)c3)c2)CC1 [Example 249] | < 100 | < 1000
N#CCNC(=O)C(=O)NCc1ccccc1C(=O)NC1(c2cc(-c3ccc(CO)s3)cc3ccccc23)CC1 [Example 350] | < 100 | < 1000
O=C(NCC#Cc1cnc(C2CC2)nc1)C(=O)NCc1ccccc1C(=O)NC1(c2ccc3ccccc3c2)CC1 [Example 180] | 1000 to 10000 | 1000 to 10000
Cn1cc(-c2cc(F)cc(C3(NC(=O)c4ccccc4CNC(=O)C(=O)NCC#N)CC3)c2)cn1 [Example 235] | < 100 | > 10000
COc1cccnc1C#CCNC(=O)C(=O)NCc1ccccc1C(=O)NC1(c2cc(F)cc(-c3cn(C)nc3C)c2)CC1 [Example 258] | < 100 | < 1000
C[C@@H](C#Cc1nccs1)NC(=O)C(=O)NCc1ccccc1C(=O)NC1(c2cc(Cl)cc(-c3ncco3)c2)CC1 [Example 493] | < 100 | < 1000
CN1C[C@H](F)C[C@H]1COc1ccc(CNC(=O)C(=O)NCC#N)c(C(=O)NC2(c3cccc4ccccc34)CC2)c1 [Example 318] | < 100 | < 1000
O=C(NCC#Cc1nccs1)C(=O)NCc1ccccc1C(=O)NC1(c2cccc(-c3cnn(C4CC4)c3)c2Cl)CC1 [Example 385] | < 100 | < 1000
C#CCNC(=O)C(=O)NCc1ccccc1C(=O)NC1(c2cc(Cl)cc(-c3cnco3)c2)CC1 [Example 450] | < 100 | < 1000
C#CCNC(=O)C(=O)NCc1ccccc1C(=O)NC1(c2cc(Cl)cc(-c3cnn(C4CC4)c3)c2)CC1 [Example 453] | < 100 | < 1000
N#CCNC(=O)C(=O)NCc1ccc(C(=O)N2CC(F)(F)C2)cc1C(=O)NC1(c2ccc(F)c3ccccc23)CC1 [Example 62] | < 100 | 1000 to 10000

SMILES | IC50 [1] [nM] | EC50 [2] [nM]
O=C(NCC#Cc1nccs1)C(=O)NCc1ccccc1C(=O)NC1(c2ccnc3ccccc23)CC1 [Example 392] | < 100 | 1000 to 10000
N#CCNC(=O)C(=O)NCc1ccccc1C(=O)NC1(c2cccc3cc(F)ccc23)CC1 [Example 54] | < 100 | < 1000
C#CCNC(=O)C(=O)NCc1ccccc1C(=O)NC1(c2cc(F)cc(-c3cn(C)nc3C)c2)CC1 [Example 234] | < 100 | < 1000
Cc1nn(C)c(C)c1-c1cc(F)cc(C2(NC(=O)c3ccccc3CNC(=O)C(=O)NCC#Cc3nccs3)CC2)c1 [Example 490] | < 100 | < 1000
N#CN1CCC(F)(C(=O)NCc2ccccc2C(=O)NC2(c3cc(Br)cc4ccccc34)CC2)C1 (centres unmarked) [Example 329] | < 100 | < 1000
Cn1cc2cc(C3(NC(=O)c4ccccc4CNC(=O)C(=O)NCC#Cc4ccc(S(C)(=O)=O)cc4F)CC3)ccc2n1 [Example 147] | < 100 | < 1000
N#CN1CCC[C@H]1CNC(=O)C(=O)NCc1ccccc1C(=O)NC1(c2cccc3ccccc23)CC1 [Example 504] | < 100 | < 1000
COC(=O)/C=C/CNC(=O)C(=O)NCc1ccccc1C(=O)NC1(c2cccc3ccccc23)CC1 [Example 4] | < 100 | < 1000
COCCN(C)C(=O)/C=C/CNC(=O)C(=O)NCc1ccccc1C(=O)NC1(c2cccc3ccccc23)CC1 [Example 556] | 100 to 1000 | 1000 to 10000
Cc1nn(C)cc1-c1cc(C2(NC(=O)c3ccccc3CNC(=O)C(=O)NCC#N)CC2)ccc1F [Example 236] | 100 to 1000 | > 10000
Cc1nn(C)cc1-c1cc(F)cc(C2(NC(=O)c3ccccc3CNC(=O)C(=O)NCC#N)CC2)c1 [Example 233] | < 100 | > 10000
CC(C)c1cccnc1C#CCNC(=O)C(=O)NCc1ccccc1C(=O)NC1(c2ccc3ccccc3c2)CC1 [Example 404] | < 100 | < 1000
O=C(NC/C=C1\CCOC1=O)C(=O)NCc1ccccc1C(=O)NC1(c2cc(Br)cc3ccccc23)CC1 [Example 151] | < 100 | < 1000
COC(=O)/C=C/CNC(=O)C(=O)NCc1ccccc1C(=O)N[C@H](C)c1cc(-c2cnn(C3CC3)c2)cc(C(F)(F)F)c1 [Example 459] | < 100 | 1000 to 10000
O=C(NC/C=C/C(=O)n1cccn1)C(=O)NCc1ccccc1C(=O)NC1(c2cccc3ccccc23)CC1 [Example 567] | 100 to 1000 | 1000 to 10000
CC(C)Oc1cccnc1C#CCNC(=O)C(=O)NCc1ccccc1C(=O)NC1(c2cc(F)cc(-c3cnn(C4CC4)c3)c2)CC1 [Example 267] | < 100 | < 1000
O=C(NCC#Cc1nccs1)C(=O)NCc1ccccc1C(=O)NC1(c2ccc3ccccc3c2)CC1 [Example 167] | < 100 | < 1000
C[C@@H](NC(=O)c1ccccc1CNC(=O)C(=O)NCC#N)c1cc(-c2ccoc2)cc(C(F)(F)F)c1 [Example 464] | < 100 | 1000 to 10000
C[C@@H](C#Cc1nccs1)NC(=O)C(=O)NCc1ccccc1C(=O)NC1(c2cc(F)cc(-c3cnn(C4CC4)c3)c2)CC1 [Example 185] | < 100 | < 1000
C[C@@H](NC(=O)c1ccccc1CNC(=O)C(=O)NCC#N)c1cc(-c2cnn(C(F)F)c2)cc(C(F)(F)F)c1 [Example 463] | 100 to 1000 | 1000 to 10000

SMILES | IC50 [1] [nM] | EC50 [2] [nM]
O=C(/C=C/CNC(=O)C(=O)NCc1ccccc1C(=O)NC1(c2cccc3ccccc23)CC1)NC1CC1 [Example 541] | 100 to 1000 | > 10000
COc1nccnc1C#CCNC(=O)C(=O)NCc1ccccc1C(=O)NC1(c2ccc3ccccc3c2)CC1 [Example 195] | < 100 | < 1000
CON(C)C(=O)C#CCNC(=O)C(=O)NCc1ccccc1C(=O)NC1(c2cccc3ccccc23)CC1 [Example 524] | < 100 | < 1000
N#CCNC(=O)C(=O)NCc1ccccc1C(=O)NC1(c2cc(-c3cn(-c4ccccn4)nn3)cc3ccccc23)CC1 [Example 427] | < 100 | < 1000
N#CCNC(=O)C(=O)NCc1ccccc1C(=O)NC1(c2cc(F)cc(-c3cnn(C4CC4)c3)c2F)CC1 [Example 312] | < 100 | 1000 to 10000
O=C(NC/C=C/S(=O)(=O)c1ccccc1)C(=O)NCc1ccccc1C(=O)NC1(c2ccc3ccccc3c2)CC1 [Example 173] | < 100 | < 1000
C#CCNC(=O)C(=O)NCc1ccccc1C(=O)NC1(c2cc(Cl)cc(C(=O)N(C)c3ccc(F)cc3)c2)CC1 [Example 77] | < 100 | 1000 to 10000
CN1C(=O)c2cccc3c(C4(NC(=O)c5ccccc5CNC(=O)C(=O)NCC#N)CC4)ccc1c23 [Example 428] | < 100 | 1000 to 10000
C[C@@H](C#Cc1c(F)cccc1C#N)NC(=O)C(=O)NCc1ccccc1C(=O)NC1(c2ccc3nn(C)cc3c2)CC1 [Example 100] | < 100 | < 1000
C#CCNC(=O)C(=O)NCc1ccccc1C(=O)NC1(c2cc(F)c(F)c(-c3cccs3)c2)CC1 [Example 241] | < 100 | 1000 to 10000
N#Cc1cc(-c2cccs2)cc(C2(NC(=O)c3ccccc3CNC(=O)C(=O)NCC#Cc3nccs3)CC2)c1 [Example 129] | < 100 | < 1000
N#CC1(NC(=O)/C=C/CNC(=O)C(=O)NCc2ccccc2C(=O)NC2(c3cccc4ccccc34)CC2)CC1 [Example 564] | 100 to 1000 | 1000 to 10000
N#CCNC(=O)C(=O)NCc1ccccc1C(=O)NC1(c2ccc(F)c(-c3cccs3)c2)CC1 [Example 219] | < 100 | 1000 to 10000
C[C@@H](NC(=O)c1ccccc1CNC(=O)C(=O)NCC#Cc1nccs1)c1cc(F)cc(-c2cnn(C3CC3)c2)c1 [Example 491] | < 100 | < 1000
O=C(NC/C=C/C(=O)N1CCCO1)C(=O)NCc1ccccc1C(=O)NC1(c2cccc3ccccc23)CC1 [Example 568] | 100 to 1000 | 1000 to 10000
O=C(C#CCNC(=O)C(=O)NCc1ccccc1C(=O)NC1(c2cccc3ccccc23)CC1)NC1CC(F)(F)C1 [Example 519] | < 100 | < 1000
C[C@@H](C#Cc1ncccc1OCC(F)F)NC(=O)C(=O)NCc1ccccc1C(=O)NC1(c2ccc3nn(C)cc3c2)CC1 [Example 212] | 100 to 1000 | 1000 to 10000
COC(=O)Cn1cc(-c2cc(C3(NC(=O)c4ccccc4CNC(=O)C(=O)NCC#N)CC3)c3ccccc3c2)nn1 [Example 426] | < 100 | 1000 to 10000

From US20240327334A1, “Covalent Inhibitors As Antiviral Agents” (Enanta Pharmaceuticals, Inc., priority 2022, published 2024)
